Laboratory results published in ChEMBL document CHEMBL4340538, “Cynaropicrin and inhibition of NF-κB activation: A structure activity relationship study” (Bioorg Med Chem Lett, 2019).
Calls of active or inactive are those of the source. No cut-off for these calls is given here.

Legend:
Type in all cases: cell-based
[1] = test system: HEK293; assay: Cytotoxicity against human HEK293 cells at 0.75 uM to 3 uM after 7 hrs by WST-8 assay; settings: hek293, 7 h
[2] = test system: HEK293; assay: Inhibition of TNFalpha-induced NFkappaB activation in human HEK293 cells expressing pGL4.32 [luc2p/NF-kBRE/Hygro] assessed as NFkappaB activity by measuring relative light units at 1.5 uM incubated for 2 hrs followed by TNFalpha addition and measured after 5 hrs by luciferase reporter gene assay
[3] = test system: HEK293; assay: Inhibition of TNFalpha-induced NFkappaB activation in human HEK293 cells expressing pGL4.32 [luc2p/NF-kBRE/Hygro] assessed as NFkappaB activity by measuring relative light units at 0.75 uM incubated for 2 hrs followed by TNFalpha addition and measured after 5 hrs by luciferase reporter gene assay
[4] = test system: HEK293; assay: Inhibition of TNFalpha-induced NFkappaB activation in human HEK293 cells expressing pGL4.32 [luc2p/NF-kBRE/Hygro] assessed as NFkappaB activity by measuring relative light units at 3 uM incubated for 2 hrs followed by TNFalpha addition and measured after 5 hrs by luciferase reporter gene assay
[5] = test system: HEK293; assay: Cytotoxicity against human HEK293 cells at 3 uM after 7 hrs by WST-8 assay; settings: hek293, 7 h
[6] = test system: HEK293; assay: Inhibition of TNFalpha-induced NFkappaB activation in human HEK293 cells expressing pGL4.32 [luc2p/NF-kBRE/Hygro] at 2.5 uM to 10 uM incubated for 2 hrs followed by TNFalpha addition and measured after 5 hrs by luciferase reporter gene assay
[7] = test system: HEK293; assay: Inhibition of TNFalpha-induced NFkappaB activation in human HEK293 cells expressing pGL4.32 [luc2p/NF-kBRE/Hygro] at 80 uM incubated for 2 hrs followed by TNFalpha addition and measured after 5 hrs by luciferase reporter gene assay

SMILES	Activity [1]	Activity [2] [RLU]	Activity [3] [RLU]	Activity [4] [RLU]	Activity [5]	inhibition [6]	inhibition [7]
C=C1C(=O)O[C@@H]2[C@H]3C(=C)[C@@H](OCOC)C[C@H]3C(=C)C[C@H](O)[C@@H]12	Non-Toxic	125	127	100	Non-Toxic	–	–
C=C(COCOC)C(=O)O[C@H]1CC(=C)[C@@H]2C[C@H](OCOC)C(=C)[C@@H]2[C@H]2OC(=O)C(=C)[C@@H]21	Non-Toxic	98.3	154	8.97	Non-Toxic	–	–
C=C(CO)C(=O)O[C@H]1CC(=C)[C@@H]2C[C@H](O)C(=C)[C@@H]2[C@H]2OC(=O)C(=C)[C@@H]21 [CYNAROPICRIN]	Non-Toxic	72.8	134	5.67	Non-Toxic	Active	–
C=C1[C@@H]2[C@H]3OC(=O)C(C)[C@@H]3[C@@H](OC(=O)C(C)CO)CC(=C)[C@@H]2C[C@@H]1O (some centres not stated)	Non-Toxic	139	123	137	Non-Toxic	–	–
S=C(S)N1CCCC1	–	–	–	–	–	–	Active
C=C1C(=O)O[C@@H]2[C@H]3C(=C)[C@@H](O)C[C@H]3C(=C)C[C@H](OC(=O)C(C)CO)[C@@H]12 (some centres not stated)	Non-Toxic	135	123	137	Non-Toxic	–	–
C=C(COC(C)=O)C(=O)O[C@H]1CC(=C)[C@@H]2C[C@H](O)C(=C)[C@@H]2[C@H]2OC(=O)C(=C)[C@@H]21	Non-Toxic	110	130	33.8	Non-Toxic	–	–
C=C1C(=O)O[C@@H]2[C@H]3C(=C)[C@@H](O)C[C@H]3C(=C)C[C@H](O)[C@@H]12 [DESACYLCYNAROPICRIN]	Non-Toxic	119	127	96.4	Non-Toxic	–	–
C=C(COC(C)=O)C(=O)O[C@H]1CC(=C)[C@@H]2C[C@H](OC(C)=O)C(=C)[C@@H]2[C@H]2OC(=O)C(=C)[C@@H]21	Non-Toxic	142	171	93.5	Non-Toxic	–	–
C=C(COC)C(=O)O[C@H]1CC(=C)[C@@H]2C[C@H](OC)C(=C)[C@@H]2[C@H]2OC(=O)C(=C)[C@@H]21	Non-Toxic	158	174	134	Non-Toxic	–	–
C=C(COC)C(=O)O[C@H]1CC(=C)[C@@H]2C[C@H](O)C(=C)[C@@H]2[C@H]2OC(=O)C(=C)[C@@H]21	Non-Toxic	151	161	137	Non-Toxic	–	–
